In the supplement of paper PMC10883282:
± gives the standard deviation of the averaged measurements.

Tested on: SW684
Assay: relative viability vs DMSO control (72 h) (fraction); higher = more viable cells
Procedure, shortened: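 Densities for seeding sarcoma cell lines into 384-well plates were set to give 80–90% confluence. After 24 h, 2.5 µl of serially diluted compound from source plates of 10 mM to 0.0002 mM went in, and plates stayed 72 h at 37 °C in 5% CO2 with 0.1% DMSO vehicle and a 5 µM positive control. Percent growth from ATPLite readings, averaged over up to triplicate wells, served as relative viability, rescaled so 1 means full and 0 means none.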

O=C(Nc1cnn2ccc(N3CCC[C@@H]3c3cc(F)ccc3F)nc12)N1CC[C@H](O)C1 [Larotrectinib]
relative viability (0.00017 µM): 1.13 ± 0.057
relative viability (0.00051 µM): 1.19 ± 0.071
relative viability (0.00152 µM): 1.19 ± 0.044
relative viability (0.00457 µM): 1.16 ± 0.025
relative viability (0.01372 µM): 1.2 ± 0.073
relative viability (0.04115 µM): 1.15 ± 0.05
relative viability (0.1235 µM): 1.14 ± 0.043
relative viability (0.3704 µM): 1.17 ± 0.084
relative viability (1.111 µM): 1.16 ± 0.021
relative viability (3.333 µM): 1.09 ± 0.069
relative viability (10 µM): 1.1 ± 0.04

COCc1c(-c2cc3cc(C)cc(OC)c3s2)c2c(N)ncnn2c1CN1CCNC(=O)C1 [Rogaratinib]
relative viability (0.00017 µM): 1.11 ± 0.051
relative viability (0.00051 µM): 1.16 ± 0.028
relative viability (0.00152 µM): 1.16 ± 0.088
relative viability (0.00457 µM): 1.16 ± 0.043
relative viability (0.01372 µM): 1.15 ± 0.03
relative viability (0.04115 µM): 1.15 ± 0.018
relative viability (0.1235 µM): 1.12 ± 0.082
relative viability (0.3704 µM): 1.14 ± 0.061
relative viability (1.111 µM): 1.09 ± 0.018
relative viability (3.333 µM): 1.04 ± 0.019
relative viability (10 µM): 0.898 ± 0.038

Cn1cnc2c(F)c(Nc3ccc(Br)cc3F)c(C(=O)NOCCO)cc21 [Binimetinib]
relative viability (0.00017 µM): 1.12 ± 0.038
relative viability (0.00051 µM): 1.17 ± 0.046
relative viability (0.00152 µM): 1.11 ± 0.03
relative viability (0.00457 µM): 1.11 ± 0.028
relative viability (0.01372 µM): 1.14 ± 0.037
relative viability (0.04115 µM): 1.12 ± 0.069
relative viability (0.1235 µM): 1.06 ± 0.058
relative viability (0.3704 µM): 1.01 ± 0.071
relative viability (1.111 µM): 0.953 ± 0.035
relative viability (3.333 µM): 0.847 ± 0.035
relative viability (10 µM): 0.642 ± 0.018

Cn1cc(-c2cc3c(N4CCN(c5ncc([C@@](C)(N)c6ccc(F)cc6)cn5)CC4)ncnn3c2)cn1 [Avapritinib]
relative viability (0.00017 µM): 1.058 ± 0.0041
relative viability (0.00051 µM): 1.04 ± 0.013
relative viability (0.00152 µM): 1.07 ± 0.036
relative viability (0.00457 µM): 1.05 ± 0.031
relative viability (0.01372 µM): 1.05 ± 0.035
relative viability (0.04115 µM): 1.01 ± 0.017
relative viability (0.1235 µM): 1.09 ± 0.064
relative viability (0.3704 µM): 1.06 ± 0.034
relative viability (1.111 µM): 1.02 ± 0.021
relative viability (3.333 µM): 1.03 ± 0.03
relative viability (10 µM): 0.95 ± 0.038

C[C@]1(O)C[C@@H](c2nc(-c3ccc4ccc(-c5ccccc5)nc4c3)c3c(N)nccn32)C1 [Linsitinib]
relative viability (0.00017 µM): 1.13 ± 0.073
relative viability (0.00051 µM): 1.17 ± 0.016
relative viability (0.00152 µM): 1.18 ± 0.021
relative viability (0.00457 µM): 1.159 ± 0.0094
relative viability (0.01372 µM): 1.16 ± 0.065
relative viability (0.04115 µM): 1.14 ± 0.021
relative viability (0.1235 µM): 1.13 ± 0.039
relative viability (0.3704 µM): 1.11 ± 0.04
relative viability (1.111 µM): 1.09 ± 0.035
relative viability (3.333 µM): 1.07 ± 0.019
relative viability (10 µM): 0.978 ± 0.057

Cc1cc(Nc2ncnc3ccc(NC4=NC(C)(C)CO4)cc23)ccc1Oc1ccn2ncnc2c1 [Tucatinib]
relative viability (0.00017 µM): 1.17 ± 0.019
relative viability (0.00051 µM): 1.2 ± 0.024
relative viability (0.00152 µM): 1.2 ± 0.024
relative viability (0.00457 µM): 1.18 ± 0.03
relative viability (0.01372 µM): 1.21 ± 0.068
relative viability (0.04115 µM): 1.21 ± 0.068
relative viability (0.1235 µM): 1.22 ± 0.09
relative viability (0.3704 µM): 1.19 ± 0.098
relative viability (1.111 µM): 1.14 ± 0.016
relative viability (3.333 µM): 1.13 ± 0.074
relative viability (10 µM): 1.08 ± 0.0088

Nc1cc(C(F)(F)F)c(-c2cc(N3CCOCC3)nc(N3CCOCC3)n2)cn1 [Buparlisib]
relative viability (0.00017 µM): 1.12 ± 0.044
relative viability (0.00051 µM): 1.14 ± 0.075
relative viability (0.00152 µM): 1.11 ± 0.047
relative viability (0.00457 µM): 1.11 ± 0.04
relative viability (0.01372 µM): 1.08 ± 0.049
relative viability (0.04115 µM): 1.09 ± 0.077
relative viability (0.1235 µM): 1.03 ± 0.016
relative viability (0.3704 µM): 0.9 ± 0.055
relative viability (1.111 µM): 0.599 ± 0.041
relative viability (3.333 µM): 0.38 ± 0.022
relative viability (10 µM): 0.282 ± 0.0065

C[C@@H]1CCN(C(=O)CC#N)C[C@@H]1N(C)c1ncnc2[nH]ccc12 [Tofacitinib]
relative viability (0.00017 µM): 1.2 ± 0.035
relative viability (0.00051 µM): 1.24 ± 0.023
relative viability (0.00152 µM): 1.2 ± 0.004
relative viability (0.00457 µM): 1.23 ± 0.028
relative viability (0.01372 µM): 1.215 ± 0.012
relative viability (0.04115 µM): 1.192 ± 0.0029
relative viability (0.1235 µM): 1.19 ± 0.018
relative viability (0.3704 µM): 1.22 ± 0.031
relative viability (1.111 µM): 1.11 ± 0.021
relative viability (3.333 µM): 1.1 ± 0.015
relative viability (10 µM): 0.943 ± 0.029

COc1cc2/c(=N/c3ccc(Br)cc3F)nc[nH]c2cc1OCC1CCN(C)CC1 [Vandetanib]
relative viability (0.00017 µM): 1.13 ± 0.018
relative viability (0.00051 µM): 1.09 ± 0.075
relative viability (0.00152 µM): 1.14 ± 0.035
relative viability (0.00457 µM): 1.12 ± 0.074
relative viability (0.01372 µM): 1.16 ± 0.033
relative viability (0.04115 µM): 1.16 ± 0.02
relative viability (0.1235 µM): 1.16 ± 0.069
relative viability (0.3704 µM): 1.168 ± 0.0075
relative viability (1.111 µM): 1.15 ± 0.038
relative viability (3.333 µM): 1.03 ± 0.054
relative viability (10 µM): 0.132 ± 0.016
